In the NIST ThermoML archive (doi:10.1021/je400781b):

Test: xn = mol fraction of the nth substance listed
Details: 101 kPa, Liquid; for speed of sound: Frequency=2.75 MHz, Pulse-echo method; for mass density: Vibrating tube method

CCCC[n+]1ccn(C)c1.O=S(=O)([N-]S(=O)(=O)C(F)(F)F)C(F)(F)F + C1CCOC1
Details	mass density, 293.15 K [kg/m3]	mass density, 298.15 K [kg/m3]	mass density, 303.15 K [kg/m3]	mass density, 308.15 K [kg/m3]	speed of sound, 293.15 K [m/s]	speed of sound, 298.15 K [m/s]	speed of sound, 303.15 K [m/s]	speed of sound, 308.15 K [m/s]
x1 = 0.0507	981.03	975.68	970.55	965.26	1276.2	1254.6	1233.2	1212
x1 = 0.124	1080.62	1075.39	1070.15	1064.96	1257.3	1238.5	1219.9	1201.5
x1 = 0.1963	1153.02	1147.88	1142.73	1137.6	1246.9	1230	1213.2	1196.6
x1 = 0.3526	1258.69	1253.67	1248.66	1243.66	1236.8	1222.4	1208	1193.8
x1 = 0.4962	1321.98	1317.04	1312.1	1307.18	1234.1	1220.9	1207.8	1194.9
x1 = 0.6378	1366.6	1361.72	1356.84	1351.97	1233.5	1221	1208.7	1196.5
x1 = 0.8047	1405.56	1400.72	1395.89	1391.07	1235.6	1223.8	1212.2	1200.7
x1 = 0.9143	1425.59	1420.79	1415.99	1411.2	1236.9	1225.4	1214.1	1203
x1 = 1	1439.23	1434.44	1429.65	1424.88	1237.9	1226.7	1215.6	1204.6
